{
  "source": "patent US7097866B2",
  "about": "“Composition and method to whiten and exfoliate skin” (Desert Whale Jojoba Company, priority 2002, dated 2006)",
  "test_system": "mouse B16F10 melanoma cells",
  "assay": "melanin content and cell pellet color of mouse B16F10 melanoma cells cultured 6 days",
  "type": "cell-based",
  "parameters": "key to Vidjual color determination of cell pellet (score 5 black to 1 white, 0 not detectable): A Vidjual score of 5 means the cell pellet was black; A Vidjual score of 1 means the cell pellet was white; A Vidjual score of 0 means the cell pellet was not detectable, i.e. it has no color at all",
  "conditions": "Sodium lactate positive control; for Vidjual color determination of cell pellet (score 5 black to 1 white, 0 not detectable): 25 mM or 50 mM level; for total melanin content per microgram of protein: added at either 25 mM or 50 mM level",
  "data": [
    {"molecule": "CC(O)C(=O)[O-].[Na+]", "note": "(stereo not shown) [Positive Control, Sodium lactate]", "values": [
      {"measurement": "Vidjual color determination of cell pellet (score 5 black to 1 white, 0 not detectable)", "setting": "table row 0.5 v/v %", "result": 3},
      {"measurement": "total melanin content per microgram of protein", "setting": "table row 0.5 v/v %", "result": "0.240 micrograms per microgram of pr"},
      {"measurement": "Vidjual color determination of cell pellet (score 5 black to 1 white, 0 not detectable)", "setting": "table row 1.0 v/v %", "result": 1},
      {"measurement": "total melanin content per microgram of protein", "setting": "table row 1.0 v/v %", "result": "0.107 micrograms per microgram of pr"}
    ]}
  ]
}
